Assay results reported in ChEMBL document CHEMBL6177965, “Sealgamide: An Antitrypanosomal Lipopeptide Isolated from a Marine Okeania sp. Cyanobacterium” (J Nat Prod, 2025).

Experiments:
[1] = test system: Trypanosoma brucei rhodesiense; experiment: Antitrypanosomal activity against Trypanosoma brucei rhodesiense IL-1501 incubated for 69 hrs by Alamar blue staining based analysis; assay type: functional, organism-based; conditions: IL-1501, 69 h
Plasmodium falciparum = experiment: Antimalarial activity against Plasmodium falciparum 3D7 infected in RBC incubated for 72 hrs by LDH assay; assay type: functional, organism-based; conditions: 3D7, Erythrocyte
HeLa = experiment: Cytotoxicity against human HeLa cells assessed as inhibition of cell growth incubated for 72 hrs by MTT assay; assay type: functional, cell-based

| Structure (SMILES) | IC50 [1] | IC50 (Plasmodium falciparum) | IC50 (HeLa) |
| --- | --- | --- | --- |
| N=C(N)c1ccc(OCCCCCOc2ccc(C(=N)N)cc2)cc1 [PENTAMIDINE] | 9 nM |  |  |
| CCC[C@@H](C[C@@H](CC(=O)N(C)[C@@H](C(=O)N(C)[C@H](C)C(=O)N[C@H](CC(C)C)C(=O)N(C)[C@@H](CC(C)C)C(=O)N[C@H](C(=O)N(C)[C@H](C(=O)N(C)[C@@H](CCC(N)=O)C(=O)N[C@@H](Cc1ccccc1)C(=O)N(C)[C@@H](CCC(N)=O)C(=O)N(C)[C@@H](Cc1ccc(OC)cc1)C(=O)OC)C(C)C)[C@@H](C)O)[C@@H](C)CC)OC)OC | 650 nM | 2100 nM | > 30000 nM |
| CCC[C@@H](C[C@@H](CC(=O)N(C)[C@@H](C(=O)N[C@H](C)C(=O)N[C@H](CC(C)C)C(=O)N(C)[C@@H](CC(C)C)C(=O)N[C@H](C(=O)N(C)[C@H](C(=O)N(C)[C@@H](CCC(N)=O)C(=O)N[C@@H](Cc1ccccc1)C(=O)N(C)[C@@H](CCC(N)=O)C(=O)N(C)[C@@H](Cc1ccc(OC)cc1)C(=O)O)C(C)C)[C@@H](C)O)[C@@H](C)CC)OC)OC | 2900 nM | > 25000 nM | > 30000 nM |
